pIC50: −log10 of the molar value.
Biological target: phosphodiesterase IV
Experiment: phosphodiesterase IV inhibitory activity (standard assay procedures)
Type: biochemical
Conditions: assay not given
Source text: The assays used to confirm the phosphodiesterase IV inhibitory activity of compounds of formula (I) are standard assay procedures as disclosed by Schilling et al, Anal. Biochem. 216:154 (1994), Thompson and Strada, Adv. Cycl. Nucl. Res. 8:119 (1979) and Gristwood and Owen, Br. J. Pharmacol. 87:91P (1986).

pIC50: 7.77
SMILES: CCc1nc2c(OC)ccc(C(=O)Nc3ccnn3C)c2s1 [Example 5, 2-Ethyl-4-methoxybenzothiazole-7-carboxylic acid (2-methyl-2H-pyrazol-3-yl)amide]

Source: patent US6313116A, “Benzothiazole compounds and their therapeutic use” (Darwin Discovery, Ltd., priority 2000, dated 2001)
